# “Also recorded” adds a separate entry of the source.
# Tests used:
# HL-60 cells [1] = assay: HL-60 viability, combination of Compound A with kinase inhibitors; type: cell-based, human; conditions: 48 hours
# CREB phosphorylation = CREB phosphorylation in HL-60 cells; type: cell-based, human; conditions: HL-60 cells; BI-D1870 5 μM, SB202190 10 μM, U0126 10 μM
# Text: FIG. 12, panels A-D, illustrates the results of CyTOF Phenotyping and Compound A Combination Studies. […] Viability for Compound A treatment alone was 87.4±7.3%, versus 55.3±3.4% and 49.5±2.3% when combined with ERK and RSK inhibitors, respectively (* indicates p<0.05 compared to cells treated with Compound A alone). Panel D) Compound A inhibits CREB phosphorylation in the presence of serum. HL-60 cells were serum-starved then stimulated with serum.
# Cells were lysed in RIPA buffer (Sigma), and the protein concentrations were determined by BCA assay (Thermo Scientific Pierce). Lysates were solubilized in 6×SDS PAGE buffer and […] of protein was loaded into 6-15% SDS PAGE gels, pheresed, and then transferred onto […] PVDF membrane (Millipore). Primary antibodies were applied at a dilution of 1:1000. Anti-Bcl-2, -Bax, -Mcl-1, -Bcl-XL, -Cyclin A and -Cyclin D1 antibodies were purchased from Cell Signaling Technologies. Anti-total acetylated histone and -ac-H3K27 were purchased from Santa Cruz Biotechnologies. Anti-actin and -CREB antibodies were purchased from upstate. Secondary antibodies were used at a 1:2500 dilution and purchased from Thermo Scientific/Pierce. WesternBright ECL was used for image acquisition on Image Lab software (Bio-Rad).
# HL-60 cells [2] = assay: Flow cytometry of apoptosis (c-PARP+, aqua amine+) in HL-60 cells; type: cell-based, human; conditions: 50 to 200 nM, 72 hours
# Procedure: AML cell lines were purchased from ATCC and maintained with IMDM (Gibco) supplemented with 10% FBS (Fisher Scientific) and 1% PSG (Gibco). Cells were plated at a density of 2-4×10^5 cells/ml, and treated with various doses of Compound A in 0.1% DMSO or 0.1% DMSO alone. Cell counts and viability were determined using the Vi-CELL XR Cell Viability Analyzer (Beckman Coulter). HL-60 and KG-1 cells overexpressing CREB or CBP were generated using lentiviral gene delivery with subsequent puromycin selection and FACs sorting for GFP. CREB knockdown was achieved by infecting cells with a lentivirus expressing the shRNA sequence 5′-[…]-3′ (SEQ ID NO:). For chemotherapy combination experiments, combination index values were calculated using median effects analysis on Calcusyn software. Human patient bone marrow samples were cultured in DMEM plus 20% FBS and 1×PSG, supplemented with recombinant GM-CSF (20 ng/ml), G-CSF (20 ng/ml), SCF (50 ng/ml), IL-3 (20 ng/ml), and IL-6 (10 ng/ml). Cells were plated at a concentration of 1×10^5 cells/ml in a 12-well plate. Vehicle (0.1% DMSO) or Compound A (2 μM) was added for up to 72 hours. All samples contained >85% AML blasts and were not sorted prior to performing experiments. […] Single cell suspensions of bone marrow culture were subsequently analyzed on a D×P10 flow cytometer (Cytek). […]
# HL-60 cells [3] = assay: HL-60 cell viability, Trypan blue exclusion assay; type: cell-based, human; conditions: 50 nM, 48 hours
# Text: FIG. 11, panels A-D, illustrates ABT-737 Causes Apoptosis in HL-60 Cells; CyTOF Gating Scheme. […] Panel D) CyTOF gating scheme, used to perform analysis specifically on AML cells within AML patient marrow samples.
# KG-1 cells = assay: Viable cell count of engineered KG-1 cell lines (CREB KD, GFP, CREB OE, CBP OE); type: cell-based; conditions: same four KG-1 cell lines, 30 μM
# Procedure: AML cell lines were purchased from ATCC and maintained with IMDM (Gibco) supplemented with 10% FBS (Fisher Scientific) and 1% PSG (Gibco). Cells were plated at a density of 2-4×10^5 cells/ml, and treated with various doses of Compound A in 0.1% DMSO or 0.1% DMSO alone. Cell counts and viability were determined using the Vi-CELL XR Cell Viability Analyzer (Beckman Coulter). HL-60 and KG-1 cells overexpressing CREB or CBP were generated using lentiviral gene delivery with subsequent puromycin selection and FACs sorting for GFP. CREB knockdown was achieved by infecting cells with a lentivirus expressing the shRNA sequence 5′-[…]-3′ (SEQ ID NO:). For chemotherapy combination experiments, combination index values were calculated using median effects analysis on Calcusyn software. Human patient bone marrow samples were cultured in DMEM plus 20% FBS and 1×PSG, supplemented with recombinant GM-CSF (20 ng/ml), G-CSF (20 ng/ml), SCF (50 ng/ml), IL-3 (20 ng/ml), and IL-6 (10 ng/ml). Cells were plated at a concentration of 1×10^5 cells/ml in a 12-well plate. Vehicle (0.1% DMSO) or Compound A (2 μM) was added for up to 72 hours. All samples contained >85% AML blasts and were not sorted prior to performing experiments. Immunostaining and flow cytometry analyses were performed according to standard procedures. All antibodies were purchased from BD Biosciences. Single cell suspensions of bone marrow culture were subsequently analyzed on a D×P10 flow cytometer (Cytek). Bone marrow from AML patients were collected through voluntary patient participation at University of California, Los Angeles (Los Angeles, Calif., USA) and Stanford University (Palo Alto, Calif., USA) in compliance with the Institutional Review Board regulations of each institution.
# To test the effects of CREB inhibition on AML cells, four AML cell lines were treated with doses of Compound A ranging from 100 pM to 10 μM for 48 hours. […] KG-1 cells were less sensitive to Compound A and expressed lower levels of CREB compared to HL-60 cells (FIG. 2, panel A). CREB was overexpressed to determine whether sensitivity of KG-1 cells to Compound A could be increased. KG-1 cell lines in which CREB or CBP was overexpressed, or CREB was knocked down by shRNA, were generated (FIG. 2C). A KG-1 cell line expressing only GFP was used as a control. These cell lines were treated with a range of Compound A concentrations for 48 hours (FIG. 2D). Experiments were also performed to examine the efficacy of combining Compound A with cytarabine or daunorubicin, standard drugs used in AML therapy.
# CMV-driven promoter = assay: CMV-driven luciferase reporter in KG-1 cells; type: cell-based; conditions: 6 hours
# Procedure: (§1) KG-1 cell lines were created to express luciferase in a CREB-dependent or non-CREB-dependent fashion using lentiviral gene delivery. Cells were sorted for mCherry expression by flow cytometry and selected with puromycin. Luciferase activity was measured on a […] using the Promega Luciferase Activity Kit (Promega) per manufacturer's instructions following six hours of treatment with Compound A or 0.1% DMSO. The split Renilla luciferase complementation assay has been described previously (Li BX, and Xiao X. Discovery of a small-molecule inhibitor of the KIX-KID interaction. Chembiochem: a European journal of chemical biology. 2009; 10(17):2721-4). In this assay, the KID and KIX domains were fused to the N- and C-terminal regions of Renilla luciferase, respectively. Once KIX binds phosphorylated KID, the Renilla luciferase regions were brought together, resulting in luciferase activity.
# (§2) To test the ability of Compound A to disrupt CREB-CBP binding in cells, a split Renilla luciferase complementation assay was performed. […] This early timepoint was selected to permit accurate reporter gene activity measurement prior to the onset of anticipated global cell dysfunction or death induced by Compound A. Treatment with 3 μM Compound A reduced luciferase activity by 33.2±7.7% at this timepoint. […] Thus, Compound A inhibits CREB function through disruption of CREB:CBP interaction.
# [4] = tested on: CREB-driven promoter (CRE); assay: CREB-driven (CRE) luciferase reporter in KG-1 cells; type: cell-based; conditions: KG-1 cells, 6 hours; 3, 10 and 30 μM
# Procedure: as §1, §2
# Caspase-3 = Caspase-3 protease activity (ApoTarget kit); type: cell-based; conditions: etoposide control
# Text: The ApoTarget Caspase-3 Protease Activity Kit (Invitrogen) was used per manufacturer's instructions.
# The balance between pro- and anti-apoptotic protein expression contributes to cell fate decisions. CREB regulates the expression of several anti-apoptotic proteins, including Bcl-2, Bcl-XL and Mcl-1. Bcl-2 expression in particular is known to mediate resistance to chemotherapy and influence clinical outcome in a number of cancer types, including AML. The ability of Compound A to cause apoptosis by disrupting the CREB-driven expression of these anti-apoptotic proteins was examined. In HL-60 cells treated with Compound A, apoptosis is induced in a dose- and time-dependent manner. […] Compound A elicited apoptosis through the intrinsic apoptosis pathway, with activation of Caspase-3 (FIG. 5, panel B) and detectable Caspase-9 cleavage (data not shown). Relative caspase-3 activity at 24 hours: 5.4±0.8 for etoposide, 1±0.78, 0.93±0.71, 1.02±0.67, 2.9±0.58, 5.1±0.63, 4.1±0.71 for 0, 1, 1.5, 2, 2.5 and 3 mM Compound A, respectively. Activity at 72 hours: 1.2±0.05 for etoposide, 1.0±0.02, 1.9±0.03, 3.7±0.04, 4.4±0.05, 2.1±0.03, 1.9±0.02 for 0, 1, 1.5, 2, 2.5 and 3 mM Compound A, respectively. The transcription of Bcl-2 decreased following 72 hours of 2 mM Compound A treatment (FIG. 5, panel C), and this was verified by Western blot analysis (FIG. 5, panel D). […] To confirm whether loss of Bcl-2 function alone is sufficient to induce apoptosis in AML cells, HL-60 cells were treated with the validated Bcl-2 inhibitor ABT-737 (50 to 200 nM). […] Bcl-2 levels are influenced by CREB expression in these AML cell lines (FIG. 11, panel C).
compound,measurement,setting,value
"Oc1ccc(-c2nc(-c3ccncc3)c(-c3ccc(F)cc3)[nH]2)cc1 [SB202190, reference compound]",effect of combination with Compound A on viability,HL-60 cells [1],additive effects
same,compensatory CREB phosphorylation following Compound A treatment,CREB phosphorylation,blocked compensatory CREB phosphorylation
"CC(C)CCN1c2nc(Nc3cc(F)c(O)c(F)c3)ncc2N(C)C(=O)C1C (centres unmarked) [BI-D1870, reference compound]",effect of combination with Compound A on viability,HL-60 cells [1],additive effects
same,compensatory CREB phosphorylation following Compound A treatment,CREB phosphorylation,blocked compensatory CREB phosphorylation
"CN(C)CC[C@H](CSc1ccccc1)Nc1ccc(S(=O)(=O)NC(=O)c2ccc(N3CCN(Cc4ccccc4-c4ccc(Cl)cc4)CC3)cc2)cc1[N+](=O)[O-] [ABT-737, reference compound]",apoptosis,HL-60 cells [2],Apoptosis was induced
same,cell viability,HL-60 cells [3],reduced cell viability
"N-methyl-(4-chlorophenyl)-3-hydroxy-naphthamide [Analog B, reference compound]",viability or proliferation rate,KG-1 cells,no reduction in viability or proliferation rate
same,CMV-driven luciferase expression,CMV-driven promoter,No statistical difference; also recorded: no significant effect
same,CREB-driven luciferase activity,[4],No statistical difference; also recorded: no significant effect
"COc1cc([C@@H]2c3cc4c(cc3[C@@H](O[C@@H]3O[C@@H]5CO[C@@H](C)O[C@H]5[C@H](O)[C@H]3O)[C@H]3COC(=O)[C@H]23)OCO4)cc(OC)c1O [etoposide, reference compound]",relative caspase-3 activity,Caspase-3; 24 hours,5.4±0.8
same,relative caspase-3 activity,Caspase-3; 72 hours,1.2±0.05

# — patent US20210205292A1, “INHIBITORS OF CREB-CBP INTERACTION FOR TREATMENT OF LEUKEMIA” (The Board of Trustees of the Leland Stanford Junior …, priority 2016, published 2021)
